Like-named read-outs stand apart in the source and are kept apart here. Each block holds one compound with its values, some of them ahead of it.
Experiments:
GCN2 kinase = GCN2 kinase (Homo sapiens, UniProt Q9P2K8); test: GCN2 enzyme inhibition assay (Transcreener ADP2 fluorescence polarization); assay type: biochemical; details: 280 μM ATP
How it was run: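 Run at 25 °C in 25 mM Tris-HCl pH 7.5, 50 mM NaCl, 10 mM MgCl2, 1 mM DTT with 4 nM GCN2, 280 μM ATP and 200 μM (RS)7 peptide; compound (0–8 μM final) preincubated 10 min, reaction 1 h. ADP read by antibody/tracer FP; IC50 and Ki(app) from tight-binding fit.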

[1] = molecular target: intracellular GCN2 (phosphorylation of the GCN2 substrate eIF2α) (Homo sapiens, UniProt Q9P2K8); test: GCN2 cellular inhibition assay (AlphaScreen SureFire P-eIF2α Ser51, borrelidin-treated U2OS cells); assay type: cell-based
How it was run: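 U2OS, overnight attach; cpd 4-fold serial dil. from 40 μM final; borrelidin 10 μM, 1 h 37 °C/5% CO2; lyse; AlphaScreen P-eIF2α Ser51 (acceptor 2 h, donor overnight, RT, dark); % inhib. vs borrelidin-only.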

[2] = Enzyme activity for compounds of Formula IV, Ki(app), 25° C.
[3] = compounds of Formula IV, biomarker assay, phosphorylated eIF2α Ser51 in borrelidin-treated U2OS cells
[4] = compounds of Formula V, 4 nM GCN2 kinase
[5] = compounds of Formula V, U2OS cells, 10 μM borrelidin, 1 h, read-out: GCN2 Biomarker (IC50)
[6] = compounds of Formula II, 4 nM GCN2 kinase
[7] = compounds of Formula II, biomarker assay, phosphorylated eIF2α Ser51 in borrelidin-treated U2OS cells

GCN2 kinase, sequence (Q9P2K8 whole entry): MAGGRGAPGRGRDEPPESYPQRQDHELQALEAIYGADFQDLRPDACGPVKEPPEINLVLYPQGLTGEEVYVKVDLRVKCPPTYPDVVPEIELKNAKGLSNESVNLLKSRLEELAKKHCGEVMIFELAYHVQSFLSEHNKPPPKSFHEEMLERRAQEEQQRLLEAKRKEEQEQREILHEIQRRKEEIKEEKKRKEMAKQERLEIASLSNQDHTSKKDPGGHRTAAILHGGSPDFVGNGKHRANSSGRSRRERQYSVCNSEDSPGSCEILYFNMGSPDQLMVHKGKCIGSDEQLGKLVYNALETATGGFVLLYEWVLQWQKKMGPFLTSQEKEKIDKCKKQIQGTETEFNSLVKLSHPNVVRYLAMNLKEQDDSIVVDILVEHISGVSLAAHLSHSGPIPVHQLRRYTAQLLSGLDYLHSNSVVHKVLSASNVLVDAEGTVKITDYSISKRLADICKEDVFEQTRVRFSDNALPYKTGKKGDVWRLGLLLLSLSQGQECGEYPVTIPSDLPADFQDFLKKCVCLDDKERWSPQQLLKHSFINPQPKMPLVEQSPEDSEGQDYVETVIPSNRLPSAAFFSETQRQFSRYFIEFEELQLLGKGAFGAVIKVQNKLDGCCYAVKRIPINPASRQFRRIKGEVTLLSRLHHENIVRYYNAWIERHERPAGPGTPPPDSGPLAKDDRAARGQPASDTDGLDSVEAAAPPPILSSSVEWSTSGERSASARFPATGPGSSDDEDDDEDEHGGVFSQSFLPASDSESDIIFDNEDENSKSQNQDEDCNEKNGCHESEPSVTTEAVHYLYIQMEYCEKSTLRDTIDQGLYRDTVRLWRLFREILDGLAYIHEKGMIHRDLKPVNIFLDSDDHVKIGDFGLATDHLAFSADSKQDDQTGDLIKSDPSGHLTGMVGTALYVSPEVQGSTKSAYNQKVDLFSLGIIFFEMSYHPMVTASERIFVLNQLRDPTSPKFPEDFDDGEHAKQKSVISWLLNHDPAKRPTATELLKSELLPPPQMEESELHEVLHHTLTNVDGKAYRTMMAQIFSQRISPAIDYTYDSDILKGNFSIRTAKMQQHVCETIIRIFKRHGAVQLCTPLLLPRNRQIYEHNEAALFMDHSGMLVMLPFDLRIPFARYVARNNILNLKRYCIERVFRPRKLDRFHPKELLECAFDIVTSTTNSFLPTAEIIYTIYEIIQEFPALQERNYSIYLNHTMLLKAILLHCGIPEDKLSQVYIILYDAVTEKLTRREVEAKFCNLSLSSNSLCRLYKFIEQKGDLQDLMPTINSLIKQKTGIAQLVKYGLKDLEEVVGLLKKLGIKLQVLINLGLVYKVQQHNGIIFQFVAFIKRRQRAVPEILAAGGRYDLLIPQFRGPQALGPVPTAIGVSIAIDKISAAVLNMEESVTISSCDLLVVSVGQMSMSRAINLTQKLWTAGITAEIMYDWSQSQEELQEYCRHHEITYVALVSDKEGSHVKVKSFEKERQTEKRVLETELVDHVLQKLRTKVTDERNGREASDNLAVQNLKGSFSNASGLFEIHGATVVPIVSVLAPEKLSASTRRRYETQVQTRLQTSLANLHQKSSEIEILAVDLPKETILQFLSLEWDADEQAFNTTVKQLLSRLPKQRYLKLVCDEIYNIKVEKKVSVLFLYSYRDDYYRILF
intracellular GCN2 (phosphorylation of the GCN2 substrate eIF2α), sequence (Q9P2K8 whole entry): as above

Ki (GCN2 kinase; [2]): 10 to 100 nM
IC50 [1, 3]: 500 to 5000 nM
SMILES: CC1CN(c2ccnc(-c3cnc4cnc(C(F)(F)F)cn34)n2)CC(c2cn[nH]c2Cl)N1 (single isomer, unassigned) [IV-652, 3-[4-[3-(5-Chloro-1H-pyrazol-4-yl)-5-methyl-piperazin-1-yl]pyrimidin-2-yl]-6-(trifluoromethyl)imidazo[1,2-a]pyrazine]

Ki (GCN2 kinase; [2]): 100 to 1000 nM
IC50 [1, 3]: > 5000 nM
SMILES: Cc1cc(N2CC(C)NC(c3cn[nH]c3)C2C)nc(-c2cnc3cnc(C(F)(F)F)cn23)n1 (single isomer, unassigned) [IV-669, 3-(4-(2,5-Dimethyl-3-(1H-pyrazol-4-yl)piperazin-1-yl)-6-methylpyrimidin-2-yl)-6-(trifluoromethyl)imidazo[1,2-a]pyrazine]

Ki (GCN2 kinase; [2]): < 10 nM
IC50 [1, 3]: 500 to 5000 nM
SMILES: Cc1cc(N2CC(C)NC(c3cn[nH]c3)C2C)nc(-c2cnc3cnc(C(F)(F)F)cn23)n1 (single isomer, unassigned) [IV-670, 3-(4-(2,5-Dimethyl-3-(1H-pyrazol-4-yl)piperazin-1-yl)-6-methylpyrimidin-2-yl)-6-(trifluoromethyl)imidazo[1,2-a]pyrazine]

Ki (GCN2 kinase; [2]): < 10 nM
IC50 [1, 3]: 500 to 5000 nM
SMILES: CC1CN(c2ccnc(-c3cnc4cnc(C(F)(F)F)cn34)n2)C(C)C(c2c[nH]c(C(F)(F)F)n2)N1 (single isomer, unassigned) [IV-673, 3-(4-(2,5-Dimethyl-3-(2-(trifluoromethyl)-1H-imidazol-4-yl)piperazin-1-yl)pyrimidin-2-yl)-6-(trifluoromethyl)imidazo[1,2-a]pyrazine]

Ki (GCN2 kinase; [2]): 10 to 100 nM
IC50 [1, 3]: 500 to 5000 nM
SMILES: CC(C)(O)C1CC(c2cn[nH]c2)CN(c2ccnc(-c3cnc4cnc(C(F)(F)F)cn34)n2)C1 (single isomer, unassigned) [IV-682, 2-(5-(1H-Pyrazol-4-yl)-1-(2-(6-(trifluoromethyl)imidazo[1,2-a]pyrazin-3-yl)pyrimidin-4-yl)piperidin-3-yl)propan-2-ol]

Ki (GCN2 kinase; [2]): 10 to 100 nM
IC50 [1, 3]: 500 to 5000 nM
SMILES: CC(C)(O)C1CC(c2cn[nH]c2)CN(c2ccnc(-c3cnc4cnc(C(F)(F)F)cn34)n2)C1 (single isomer, unassigned) [IV-683, 2-(5-(1H-Pyrazol-4-yl)-1-(2-(6-(trifluoromethyl)imidazo[1,2-a]pyrazin-3-yl)pyrimidin-4-yl)piperidin-3-yl)propan-2-ol]

Ki (GCN2 kinase; [2]): < 10 nM
IC50 [1, 3]: < 500 nM
SMILES: CC(C)(O)C1CC(c2cn[nH]c2)CN(c2ccnc(-c3cnc4cnc(C(F)(F)F)cn34)n2)C1 (single isomer, unassigned) [IV-684, 2-(5-(1H-Pyrazol-4-yl)-1-(2-(6-(trifluoromethyl)imidazo[1,2-a]pyrazin-3-yl)pyrimidin-4-yl)piperidin-3-yl)propan-2-ol]

Ki (GCN2 kinase; [2]): < 10 nM
IC50 [1, 3]: < 500 nM
SMILES: CC(C)(O)C1CC(c2cn[nH]c2)CN(c2ccnc(-c3cnc4cnc(C(F)(F)F)cn34)n2)C1 (single isomer, unassigned) [IV-685, 2-(5-(1H-Pyrazol-4-yl)-1-(2-(6-(trifluoromethyl)imidazo[1,2-a]pyrazin-3-yl)pyrimidin-4-yl)piperidin-3-yl)propan-2-ol]

Ki (GCN2 kinase; [6]): < 10 nM
IC50 [1, 7]: 500 to 5000 nM
SMILES: CC1CCC(CNS(C)(=O)=O)CN1c1cc(-c2cnc3ccc(C(F)F)nn23)ncn1 (stereo not drawn) [II-3, N-((1-(6-(6-(Difluoromethyl)imidazo[1,2-b]pyridazin-3-yl)pyrimidin-4-yl)-6-methylpiperidin-3-yl)methyl)methanesulfonamide]

Ki (GCN2 kinase; [6]): 10 to 1000 nM
IC50 [1, 7]: 500 to 5000 nM
SMILES: FC(F)c1ccc2ncc(-c3cc(N4CCOC(c5cn[nH]c5)C4)ncn3)n2n1 (stereo not drawn) [II-4, 4-(6-(6-(Difluoromethyl)imidazo[1,2-b]pyridazin-3-yl)pyrimidin-4-yl)-2-(1H-pyrazol-4-yl)morpholine]

Ki (GCN2 kinase; [6]): > 1000 nM
IC50 [1, 7]: > 5000 nM
SMILES: CN1C(=O)CN(c2cc(-c3cnc4ccc(C(F)F)nn34)ncn2)C[C@H]1CNS(C)(=O)=O [II-7, (S)—N-((4-(6-(6-(Difluoromethyl)imidazo[1,2-b]pyridazin-3-yl)pyrimidin-4-yl)-1-methyl-6-oxopiperazin-2-yl)methyl)methanesulfonamide]

Ki (GCN2 kinase; [6]): 10 to 1000 nM
IC50 [1, 7]: 500 to 5000 nM
SMILES: CC1CC(CNS(C)(=O)=O)CN1c1cc(-c2cnc3ccc(C(F)F)nn23)ncn1 (stereo not drawn) [II-8, N-((1-(6-(6-(Difluoromethyl)imidazo[1,2-b]pyridazin-3-yl)pyrimidin-4-yl)-5-methylpyrrolidin-3-yl)methyl)methanesulfonamide]

Ki (GCN2 kinase; [6]): 10 to 1000 nM
IC50 [1, 7]: 500 to 5000 nM
SMILES: OC[C@@H]1CN(c2cc(-c3cnc4ccc(C(F)F)nn34)ncn2)CCO1 [II-9, (S)-(4-(6-(6-(Difluoromethyl)imidazo[1,2-b]pyridazin-3-yl)pyrimidin-4-yl)morpholin-2-yl)methanol]

Ki (GCN2 kinase; [6]): 10 to 1000 nM
IC50 [1, 7]: > 5000 nM
SMILES: CS(C)(=O)=NC[C@@H]1CN(c2cc(-c3cnc4ccc(C(F)F)nn34)ncn2)CCO1 [II-10, [(2S)-4-[6-[6-(Difluoromethyl)imidazo[1,2-b]pyridazin-3-yl]pyrimidin-4-yl]morpholin-2-yl]methylimino-dimethyl-oxo-sulfane]

Ki (GCN2 kinase; [6]): 10 to 1000 nM
IC50 [1, 7]: > 5000 nM
SMILES: CS(=O)(=O)NCC1CN(c2cc(-c3cnc4ccc(C(F)F)nn34)ncn2)c2ccccc21 (stereo not drawn) [II-11, N-((1-(6-(6-(Difluoromethyl)imidazo[1,2-b]pyridazin-3-yl)pyrimidin-4-yl)indolin-3-yl)methyl)methanesulfonamide]

Ki (GCN2 kinase; [6]): 10 to 1000 nM
IC50 [1, 7]: 500 to 5000 nM
SMILES: CS(=O)(=O)NCC1CC(O)CN(c2cc(-c3cnc4ccc(C(F)F)nn34)ncn2)C1 (stereo not drawn) [II-12, N-((1-(6-(6-(Difluoromethyl)imidazo[1,2-b]pyridazin-3-yl)pyrimidin-4-yl)-5-hydroxypiperidin-3-yl)methyl)methanesulfonamide]

The remaining lines, values behind:

SMILES: C[C@H]1CN(c2ccnc(-c3cnc4sc(C(F)F)cn34)n2)C[C@@H](CNS(C)(=O)=O)C1(F)F (stereo in doubt) [Compound V-1, N-((-1-(2-(2-(Difluoromethyl)imidazo[2,1-b]thiazol-5-yl)pyrimidin-4-yl)-4,4-difluoro-5-methylpiperidin-3-yl)methyl)methanesulfonamide]
Ki (GCN2 kinase; [4]): < 10 nM
IC50 [1, 5]: 500 to 5000 nM

SMILES: FC(F)(F)c1cn2c(-c3nccc(N4CCO[C@H](c5cn[nH]c5)C4)n3)cnc2s1 (stereo in doubt) [Compound V-3, 2-(1H-Pyrazol-4-yl)-4-(2-(2-(trifluoromethyl)imidazo[2,1-b]thiazol-5-yl)pyrimidin-4-yl)morpholine]
Ki (GCN2 kinase; [4]): < 10 nM
IC50 [1, 5]: < 500 nM

SMILES: FC(F)(F)c1cn2c(-c3nccc(N4CCO[C@@H](c5cn[nH]c5)C4)n3)cnc2s1 (stereo in doubt) [Compound V-4, 2-(1H-pyrazol-4-yl)-4-(2-(2-(trifluoromethyl)imidazo[2,1-b]thiazol-5-yl)pyrimidin-4-yl)morpholine]
Ki (GCN2 kinase; [4]): 10 to 100 nM
IC50 [1, 5]: 500 to 5000 nM

SMILES: FC(F)(F)c1cn2c(-c3nccc(N4CCC(c5cn[nH]c5)C4)n3)cnc2s1 (stereo not drawn) [Compound V-7, 5-[4-[3-(1H-Pyrazol-4-yl)pyrrolidin-1-yl]pyrimidin-2-yl]-2-(trifluoromethyl)imidazo[2,1-b]thiazole]
Ki (GCN2 kinase; [4]): 10 to 100 nM
IC50 [1, 5]: 500 to 5000 nM

SMILES: NC(=O)[C@H]1CCCN(c2ccnc(-c3cnc4sc(C(F)(F)F)cn34)n2)C1 [Compound V-10, (3S)-1-[2-[2-(Trifluoromethyl)imidazo[2,1-b]thiazol-5-yl]pyrimidin-4-yl]piperidine-3-carboxamide]
Ki (GCN2 kinase; [4]): < 10 nM
IC50 [1, 5]: < 500 nM

SMILES: CC1CN(c2ccnc(-c3cnc4sc(C(F)(F)F)cn34)n2)C(C)C(c2cn[nH]c2)N1 (stereo not drawn) [Compound V-13, 5-[4-[2,5-Dimethyl-3-(1H-pyrazol-4-yl)piperazin-1-yl]pyrimidin-2-yl]-2-(trifluoromethyl)imidazo[2,1-b]thiazole]
Ki (GCN2 kinase; [4]): < 10 nM
IC50 [1, 5]: < 500 nM

SMILES: CC1CN(c2ccnc(-c3cnc4sc(C(F)F)cn34)n2)CC(CNS(C)(=O)=O)C1(F)F (stereo not drawn) [Compound V-14, N-[[1-[2-[2-(Difluoromethyl)imidazo[2,1-b]thiazol-5-yl]pyrimidin-4-yl]-4,4-difluoro-5-methyl-3-piperidyl]methyl]methanesulfonamide]
Ki (GCN2 kinase; [4]): 10 to 100 nM
IC50 [1, 5]: 500 to 5000 nM

SMILES: FC(F)(F)c1cn2c(-c3nccc(N4CCOC(c5cn[nH]c5)C4)n3)cnc2s1 (stereo not drawn) [Compound V-15, 2-(1H-Pyrazol-4-yl)-4-[2-[2-(trifluoromethyl)imidazo[2,1-b]thiazol-5-yl]pyrimidin-4-yl]morpholine]
Ki (GCN2 kinase; [4]): < 10 nM
IC50 [1, 5]: < 500 nM

SMILES: CC1CC(CS(C)(=N)=O)C(C)N(c2ccnc(-c3cnc4sc(C(F)(F)F)cn34)n2)C1 (stereo not drawn) [Compound V-16, ((2,5-Dimethyl-1-(2-(2-(trifluoromethyl)imidazo[2,1-b]thiazol-5-yl)pyrimidin-4-yl)piperidin-3-yl)methyl)(imino)(methyl)-λ^6-sulfanone]
Ki (GCN2 kinase; [4]): 100 to 1000 nM
IC50 [1, 5]: > 5000 nM

SMILES: CC1CC(CS(C)(=N)=O)C(C)N(c2ccnc(-c3cnc4sc(C(F)(F)F)cn34)n2)C1 (stereo not drawn) [Compound V-17, ((2,5-Dimethyl-1-(2-(2-(trifluoromethyl)imidazo[2,1-b]thiazol-5-yl)pyrimidin-4-yl)piperidin-3-yl)methyl)(imino)(methyl)-λ^6-sulfanone]
Ki (GCN2 kinase; [4]): 10 to 100 nM
IC50 [1, 5]: 500 to 5000 nM

SMILES: FC(F)(F)c1cn2c(-c3nccc(N4CCOC(c5cn[nH]c5)C4)n3)cnc2s1 (stereo not drawn) [Compound V-20, 2-(1H-pyrazol-4-yl)-4-(2-(2-(trifluoromethyl)imidazo[2,1-b]thiazol-5-yl)pyrimidin-4-yl)morpholine]
Ki (GCN2 kinase; [4]): < 10 nM
IC50 [1, 5]: < 500 nM

From US10988477B2 (Merck Patent GmbH, priority 2018, dated 2021)
